Converted amounts (≈) assume the structure as drawn. Like-named read-outs stand apart in the source and are kept apart here.
Legend:
[1] = test system: E. coli K12+pSMART-LC-Kan-cynTS; type: cell-based; settings: Escherichia coli, 24 h, read-out: Minimum inhibitory concentration (MIC) of 3-HP for E. coli K12+pSMART-LC-Kan-cynTS in M9 minimal media
Experimental: Overnight cultures of strains were grown in 5 ml LB (with antibiotic where appropriate) at 37° C. in a shaking incubator. A 1 v/v % was used to inoculate 10 mL of M9 minimal media. After the cells reached mid-exponential phase, the culture was diluted to an OD600 of 0.200. The cells were further diluted 1:20 and a 10 ul aliquot was used to inoculate each well (˜10^4 cells per well). […] The MIC endpoint is the lowest concentration of compound at which there was no visible growth.
Purified plasmid was retransformed into E. coli K12 by standard techniques and MIC measured as described in Example 37.

E. coli = test: microbe, parasite or virus in culture; type: cell-based; settings: for MIC: Escherichia coli, BW25113, read-out: MIC Assay Result (g/L 3-HP), aerobic; for % Increase Over Control: aerobic
Experimental: For MIC evaluations, the final results are expressed in chemical agent concentrations determined by analysis of the stock solution by HPLC (i.e., see Subsection IIIb).
The minimum inhibitory concentration (MIC) was determined aerobically in a 96 well-plate format. […] Media supplements were added according to levels reported in the Supplements Table, where specified. Overnight cultures of strains were grown in triplicate in 5 mL LB (with antibiotic where appropriate). A 1% (v/v) inoculum was introduced into a 5 ml culture of M9 minimal media.

O=C(O)CCO [3-HP, 3-hydroxypropionic acid]
MIC [1]: 50 mg/mL (≈ 555 mM) | MIC (E. coli; strain BW25113, no modifications (control), M9): 27.5 g/L (≈ 305 mM) | MIC (E. coli; strain BX_00002.0: BW25113 wild type, pKK223-mcs1 (control), M9 + Amp (100 μg/mL)): 20 g/L | MIC (E. coli; strain BX_00003.0: BW25113 wild type, pBT-3 (control), M9 + Cm (20 μg/mL)): 25 g/L | MIC (E. coli; strain BX_00118.0: BW25113 wild type, pJ251 (control), M9 + Kan (20 μg/mL)): 25 g/L | MIC (E. coli; strain BX_00138.0: BW25113 wild type, pSmart-LC-Kan (control), M9 + Kan (20 μg/mL)): 25 g/L | MIC (E. coli; strain BX_00142.0: BW25113 wild type, pSmart-LC-kan, pBT-3 (control), M9 + Kan (20 μg/mL), Cm (20 μg/mL)): 20 g/L | MIC (E. coli; strain BX_00144.0: BW25113 wild type, pSmart-HC-Amp (control), M9 + Amp (100 μg/mL)): 25 g/L | MIC (E. coli; strain BX_00300.0: BW25113 wild type, pSmart-LC-Kan-tyrA-aroF, M9 + Kan 20 μg/mL): 35 g/L | MIC (E. coli; strain BX_00302.0: BW25113 wild type, pSmart-LC-Kan-folA-ORF, M9 + Kan 20 μg/mL): 30 g/L | MIC (E. coli; strain BX_00305.0: BW25113 wild type, pSmart-LC-Kan-pheA-C1, M9 + Kan 20 μg/mL): 35 g/L | MIC (E. coli; strain BX_00307.0: BW25113 wild type, pSmart-LC-Kan-tyrA-C1, M9 + Kan 20 μg/mL): 35 g/L | MIC (E. coli; strain BX_00309.0: BW25113 wild type, pSmart-LC-Kan-cynTS, M9 + Kan 20 μg/mL): 35 g/L | MIC (E. coli; strain BX_00310.0: BW25113 wild type, pSmart-LC-Kan-glyA, M9 + Kan 20 μg/mL): 35 g/L | MIC (E. coli; strain BX_00312.0: BW25113 wild type, pSmart-LC-Kan-serA, M9 + Kan 20 μg/mL): 35 g/L | MIC (E. coli; strain BX_00313.0: BW25113 wild type, pSmart-LC-Kan-folD, M9 + Kan 20 μg/mL): 30 g/L | MIC (E. coli; strain BX_00314.0: BW25113 wild type, pSmart-LC-Kan-aroE, M9 + Kan 20 μg/mL): 35 g/L | MIC (E. coli; strain BX_00315.0: BW25113 wild type, pSmart-LC-Kan-aroKB C1, M9 + Kan 20 μg/mL): 35 g/L | MIC (E. coli; strain BX_00317.0: BW25113 wild type, pSmart-LC-Kan-ilvA operon, M9 + Kan 20 μg/mL): 35 g/L | MIC (E. coli; strain BX_00318.0: BW25113 wild type, pSmart-LC-Kan-cysM, M9 + Kan 20 μg/mL): 35 g/L | MIC (E. coli; strain BX_00319.0: BW25113 wild type, pK223-aroH, M9 + Amp 100 μg/mL + 1 mM IPTG): 30 g/L | MIC (E. coli; strain BX_00322.0: BW25113 wild type, pJ61-speFED, M9 + Kan 20 μg/mL): 35 g/L | MIC (E. coli; strain BX_00323.0: BW25113 wild type, pJ61-aroG, M9 + Kan 20 μg/mL): 35 g/L | MIC (E. coli; strain BX_00324.0: BW25113 wild type, pJ61-thrA, M9 + Kan 20 μg/mL): 35 g/L | MIC (E. coli; strain BX_00325.0: BW25113 wild type, pJ61-asd, M9 + Kan 20 μg/mL): 35 g/L | MIC (E. coli; strain BX_00326.0: BW25113 wild type, pJ61-ilvA, M9 + Kan 20 μg/mL): 35 g/L | MIC (E. coli; strain BX_00327.0: BW25113 wild type, pJ61-cysM, M9 + Kan 20 μg/mL): 35 g/L | MIC (E. coli; strain BX_00335.0: BW25113 wild type, pSmart-HC-Amp-prs, M9 + Amp 100 μg/mL): 35 g/L | MIC (E. coli; strain BX_00336.0: BW25113 wild type, pSmart-HC-Amp-nrdAB, M9 + Amp 100 μg/mL): 35 g/L | MIC (E. coli; strain BX_00337.0: BW25113 wild type, pSmart-HC-Amp-nrdEF, M9 + Amp 100 μg/mL): 35 g/L | MIC (E. coli; strain BX_00352.0: BW25113 wild type, pSmart-LC-Kan-metC C1, M9 + Amp 100 μg/mL): 35 g/L | MIC (E. coli; strain BX_00353.0: BW25113 wild type, pSmart-HC-Amp-metC, M9 + Amp 100 μg/mL): 45 g/L | MIC (E. coli; strain BX_00354.0: BW25113 wild type, pSmart-HC-Amp-cynTS, M9 + Amp 100 μg/mL): 45 g/L | MIC (E. coli; strain BX_00356.0: BW25113 wild type, pSmart-HC-Amp-LysA, M9 + Amp 100 μg/mL): 30 g/L | MIC (E. coli; strain BX_00357.0: BW25113 wild type, pKK223-aroH*445, M9 + Amp 100 μg/mL + 1 mM IPTG): 30 g/L | MIC (E. coli; strain BX_00359.0: BW25113 wild type, pKK223-aroH*457, M9 + Amp 100 μg/mL + 1 mM IPTG): 35 g/L | MIC (E. coli; strain BX_00361.0: BW25113 wild type, pACYC177 (Kan only)-cynTS, M9 + Kan 20 μg/mL): 35 g/L | MIC (E. coli; strain BX_00362.0: BW25113 wild type, pACYC177 (Kan only)-aroH, M9 + Kan 20 μg/mL + 1 mM IPTG): 30 g/L | MIC (E. coli; strain BX_00363.0: BW25113 wild type, pACYC177 (kan only)-speB, M9 + Kan 20 μg/mL): 35 g/L | MIC (E. coli; strain BX_00364.0: BW25113 wild type, pACYC177 (Kan only)-metE (Version1) (SS090608_13), M9 + Kan 20 μg/mL + 1 mM IPTG): 35 g/L | MIC (E. coli; strain BX_00365.0: BW25113 wild type, pACYC177 (Kan only)-metC (Version1) (SS090608_17), M9 + Kan 20 μg/mL): 35 g/L | MIC (E. coli; strain BX_00368.0: BW25113 wild type, pBT-3-cynTS, M9 + Cm (20 μg/mL)): 30 g/L | MIC (E. coli; strain BX_00370.0: BW25113 wild type, pBT-3-speB, M9 + Cm (20 μg/mL)): 30 g/L | % Increase Over Control (E. coli; strain BX_00301.0 (pSmart-LC-Kan-folA-C1)): 40% | % Increase Over Control (E. coli; strain BX_00302.0 (pSmart-LC-Kan-folA-ORF)): 20% | % Increase Over Control (E. coli; strain BX_00304.0 (pSmart-LC-Kan-menA-ORF)): 40% | % Increase Over Control (E. coli; strain BX_00305.0 (pSmart-LC-Kan-pheA-C1)): 40% | % Increase Over Control (E. coli; strain BX_00307.0 (pSmart-LC-Kan-tyrA-C1)): 40% | % Increase Over Control (E. coli; strain BX_00309.0 (pSmart-LC-Kan-cynTS)): 40% | % Increase Over Control (E. coli; strain BX_00310.0 (pSmart-LC-Kan-glyA)): 40% | % Increase Over Control (E. coli; strain BX_00312.0 (pSmart-LC-Kan-serA)): 40% | % Increase Over Control (E. coli; strain BX_00313.0 (pSmart-LC-Kan-folD)): 20% | % Increase Over Control (E. coli; strain BX_00314.0 (pSmart-LC-Kan-aroE)): 40% | % Increase Over Control (E. coli; strain BX_00315.0 (pSmart-LC-Kan-aroKB C1)): 40% | % Increase Over Control (E. coli; strain BX_00317.0 (pSmart-LC-Kan-ilvA operon)): 40% | % Increase Over Control (E. coli; strain BX_00318.0 (pSmart-LC-Kan-cysM)): 40% | % Increase Over Control (E. coli; strain BX_00319.0 (pK223-aroH)): 50% | % Increase Over Control (E. coli; strain BX_00321.0 (pK223-ct-his-thrA)): 75% | % Increase Over Control (E. coli; strain BX_00322.0 (pJ61-speFED)): 40%
